Measurements published in PMC11062894, “Protein-based bandpass filters for controlling cellular signaling with chemical inputs” (Nature Chemical Biology, 2023).
Where “and” joins values, the source holds several entries; their conditions need not be identical. Equal values may be shown once.

System: GEMS receptors with CBPA11 (BclXL–LD3 and BclXLhigh variants), STAT3-driven SEAP in HEK293T cells
Assay: GEMS SEAP reporter assay, CBPA11 (BclXLhigh, LD3-v and BclXL-v variants) with A-1155463
Assay type: cell-based
Parameters: key to Raw data (SEAP) / SEAP, replicate values / Raw data of Figure 5b / Raw data Figure 5e / Raw data of Independent repeat of CBPA11-v1 vs CBPA11-v1-LD3v3 / Raw data of Independent repeat of CBPA11-v3 vs CBPA11-v3-LD3v3 / Raw data of Figure 5b, CBPA11-v1-LD3v3 (SEAP reporter raw value, single replicate) / Raw data of Figure 5b, CBPA11-v1 (SEAP reporter raw value, single replicate): SEAP activity in U/L in culture supernatant
Excerpt: To rationally design a CBP responding to a chemical input, we used BclXL as the druglow receptor, LD3 as the designed binder and a designed BclXL variant as the drughigh receptor (referred to as BclXLhigh) to construct a CBP responsive to BclXL inhibitors (Fig. 4a). To design BclXLhigh, we used a multistate design computational protocol described elsewhere[26] […] Thus, BclXLhigh-v(1–3) were chosen as the functional drughigh receptors, resulting in three A-1155463-controlled CBPs (referred to as CBPA11-v(1–3)) (Fig. 4c–e).
HEK293T cells were seeded in a 96-well plate 24 h before transfection. The transfection mix in each well consisted of 3 ng of constitutive human CMV promoter driven mammalian STAT3 expression vector (PhCMV-STAT3-pA), 30 ng of STAT3-induced reporter expression (OStat3-PhCMVmin-SEAP-pA) and 50 ng of expression vectors for each GEMS receptor chain (PSV40-IgK-(drughigh receptor)-EpoRm-IL-6RBm-pA and PSV40-IgK-(druglow receptor-GGGGSX3-LD3)-EpoRm-IL-6RBm-pA). For the specific drughigh receptor and druglow receptor used in the different cellular assays, they are indicated as wild type or with mutations. Then, plasmid DNA was mixed with 50 μl opti-MEM (Thermo Fisher) and 600 ng of polyethyleneimine (Polysciences, catalog no. 24765-1). For drug treatment experiments, drugs were added 12 h post-transfection and incubated with cells for 24 h before the SEAP reporter detection assay.
SEAP activity (U l^−1) in cell culture supernatants was quantified by kinetic measurements at 405 nm (1 minute per measurement for 30 cycles) of absorbance increase due to phosphatase-mediated hydrolysis of para-nitrophenyl phosphate (pNPP).
Binding affinities of SPR drug competition assays were calculated using three-parameter nonlinear regression in GraphPad Prism (v.8.3.0). Representative data of cell assays are presented as individual values and mean values (bars). n = 3 refers to biological replicates. All IC50 or EC50 values of cell assays reported were calculated using four-parameter nonlinear regression ± s.d. Bandpass features of cutoff concentrations and Bandwidth90% were estimated based on the curve fitted using bell-shaped curve nonlinear regression in GraphPad Prism (v.8.3.0). […]
Supplementary Figure 4: Design, screening and validation of BclXLhigh variants. a) Screening of BclXLhigh variants in the GEMS platform. […]
Dissociation constant measurement of BclXLhigh-v(1-3) and LD3. Equilibrium curves are fitted using […]
BclXLhigh-v1 (purple), BclXLhigh-v2 (blue), […]
a) Bcl2high-based bandpass filter designs were developed and to respond to different concentrations of […]
corresponding inhibitor. c) Screening of Bcl2high-based bandpass filter variants in the GEMS platform.
The designed binder LD3 was fused to the druglow-receptor (PSV40-IgK-Bcl2-LD3-EpoRm-IL-6RBm-pA) in one EpoR chain and Bcl2high variants with the insensitive Bcl2 (iBcl2) as control in the other EpoR chain (PSV40-IgK-Bcl2high-EpoRm-IL-6RBm-pA). HEK293T cells were transfected with indicated […]
the mean of six biological replicates ± s.d., overlaid with a scatter dot plot of the original data points.
(1 picture or pasted object on this page, not shown here)
Supplementary Figure 6: Binding affinities and drug resistances of Bcl2high-v(2,4,5) assessed by […]
a) Measurement of dissociation constants for Bcl2high-v(2,4,5) and LD3 interactions. Equilibrium curves […]
Bcl2high-v(2,4,5) measured by SPR. 5 μM of Bcl2 or indicated variants were mixed with 10 μM of […]
Bcl2high-v2 (red), Bcl2high-v4
Supplementary Figure 7: Screening of LD3 variants in CBPA11-v(1-3) and raw data of CBPA11-v(1,3) with LD3-v3 variant. a-c) Screening of LD3 and LD3-v(1-3) variants in complex with BclXL for more sensitive CBPA11-v1 (a), CBPA11-v2 (b), CBPA11-v3 (c) in the GEMS platform. The LD3 variants replaced the role of LD3 (PSV40-IgK-BclXL-LD3-v(1-3)-EpoRm-IL-6RBm-pA) in one EpoR chain and BclXLhigh-v(1-3) in the other EpoR chain (PSV40-IgK-BclXLhigh-V(1-3)-EpoRm-IL-6RBm-pA). HEK293T cells were transfected with […]

In the case of CN(C)CC#Cc1ccc(OCCCc2sc(N3CCc4cccc(C(=O)Nc5nc6ccccc6s5)c4C3)nc2C(=O)O)c(F)c1 [A-1155463], the “Raw data of Figure 5b, CBPA11-v1-LD3v3 (SEAP reporter raw value, single replicate)” value (A-1155463 10000 nM, construct CBPA11-v1-LD3v3, three replicate columns) is reported as 23.9254 and 24.8005 and 21.4423, the “Raw data of Figure 5b, CBPA11-v1 (SEAP reporter raw value, single replicate)” value (A-1155463 10000 nM, construct CBPA11-v1, three replicate columns) is reported as 69.4522 and 75.5808 and 84.1281 and the “Raw data of Independent repeat of CBPA11-v1 vs CBPA11-v1-LD3v3” value (from here on “Raw data … vs CBPA11-v1-LD3v3”) (CBPA11-v1, A-1155463 0.01 nM) is reported as 21.5154 and 21.2395 and 24.0629. For the same molecule, the “Normalized data Figure 5e” value (CBPA11-v1, A-1155463 1 nM) was 6.4824 and 7.053 and 8.837, the “Normalized data of Figure 5b” value (CBPA11-v1, A-1155463 1 nM) was 1.402 and 1.595 and 1.731 and the “Raw data of Figure 5b” value (CBPA11-v1, A-1155463 1 nM) was 11.9307 and 13.3631 and 14.4518. For the same molecule, the “Raw data … vs CBPA11-v1-LD3v3” value (CBPA11-v1, A-1155463 1 nM) was 71.2806 and 66.4229 and 63.7452, the “Raw data … vs CBPA11-v1-LD3v3” value (CBPA11-v1, A-1155463 3.16 nM) was 80.0965 and 82.8427 and 80.4448 and the “Normalized data Figure 5e” value (CBPA11-v1, A-1155463 3.18 nM) was 7.202 and 10.0096 and 11.7189. The “Normalized data Figure 5e” value (CBPA11-v1, A-1155463 10 nM) was 46.8388 and 51.1661 and 51.2149, the “Normalized data of Figure 5b” value (CBPA11-v1, A-1155463 10 nM) was 14.5535 and 13.2638 and 13.0086 and the “Raw data of Figure 5b” value (CBPA11-v1, A-1155463 10 nM) was 123.839 and 111.135 and 108.599. For the same molecule, the “Raw data … vs CBPA11-v1-LD3v3” value (CBPA11-v1, A-1155463 10 nM) was 462.474 and 463.658 and 418.386, the “Raw data … vs CBPA11-v1-LD3v3” value (CBPA11-v1, A-1155463 31.6 nM) was 571.289 and 570.216 and 457.441 and the “Normalized data Figure 5e” value (CBPA11-v1, A-1155463 31.8 nM) was 63.7218 and 71.158 and 71.088. The “Normalized data of Figure 5b” value (CBPA11-v1, A-1155463 31.8 nM) was 45.8074 and 33.2331 and 44.7698, the “Raw data of Figure 5b” value (CBPA11-v1, A-1155463 31.8 nM) was 389.784 and 278.454 and 373.749 and the “Normalized data Figure 5e” value (CBPA11-v1, A-1155463 100 nM) was 98.9083 and 100. The “Normalized data of Figure 5b” value (CBPA11-v1, A-1155463 100 nM) was 66.3164 and 72.6195 and 72.7718, the “Raw data of Figure 5b” value (CBPA11-v1, A-1155463 100 nM) was 564.299 and 608.466 and 607.516 and the “Raw data … vs CBPA11-v1-LD3v3” value (CBPA11-v1, A-1155463 100 nM) was 770.33 and 757.162 and 752.74. For the same molecule, the “Raw data … vs CBPA11-v1-LD3v3” value (CBPA11-v1, A-1155463 316 nM) was 692.583 and 694.97 and 762.999, the “Normalized data Figure 5e” value (CBPA11-v1, A-1155463 318 nM) was 100 and 89.6838 and 88.8002 and the “Normalized data of Figure 5b” value (CBPA11-v1, A-1155463 318 nM) was 100. The “Raw data of Figure 5b” value (CBPA11-v1, A-1155463 318 nM) was 850.92 and 837.883 and 834.824, the “Normalized data Figure 5e” value (CBPA11-v1, A-1155463 1000 nM) was 87.8736 and 79.7319 and 71.766 and the “Normalized data of Figure 5b” value (CBPA11-v1, A-1155463 1000 nM) was 69.8009 and 76.8483 and 84.4115. For the same molecule, the “Raw data of Figure 5b” value (CBPA11-v1, A-1155463 1000 nM) was 593.95 and 643.898 and 704.687, the “Raw data … vs CBPA11-v1-LD3v3” value (CBPA11-v1, A-1155463 1000 nM) was 543.865 and 540.678 and 577.914 and the “Raw data … vs CBPA11-v1-LD3v3” value (CBPA11-v1, A-1155463 3160 nM) was 413.782 and 413.648 and 344.2. The “Normalized data Figure 5e” value (CBPA11-v1, A-1155463 3180 nM) was 51.7606 and 52.3661 and 51.7462, the “Normalized data of Figure 5b” value (CBPA11-v1, A-1155463 3180 nM) was 53.3499 and 60.9077 and 57.5176 and the “Raw data of Figure 5b” value (CBPA11-v1, A-1155463 3180 nM) was 453.965 and 510.335 and 480.171. For the same molecule, the “Normalized data Figure 5e” value (CBPA11-v1, A-1155463 10000 nM) was 19.9955 and 19.9571 and 22.5422, the “Normalized data of Figure 5b” value (CBPA11-v1, A-1155463 10000 nM) was 33.8321 and 33.8547 and 35.5742 and the “Raw data of Figure 5b” value (CBPA11-v1, A-1155463 10000 nM) was 287.884 and 283.663 and 296.982. The “Raw data … vs CBPA11-v1-LD3v3” value (CBPA11-v1, A-1155463 10000 nM) was 129.42 and 154.739 and 117.07, the “Normalized data Figure 5e” value (CBPA11-v1-BclXLv2, A-1155463 1 nM) was 21.782 and 18.7434 and 19.0174 and the “Normalized data Figure 5e” value (CBPA11-v1-BclXLv2, A-1155463 3.18 nM) was 30.7821 and 38.1789 and 36.4445. For the same molecule, the “Normalized data Figure 5e” value (CBPA11-v1-BclXLv2, A-1155463 10 nM) was 85.4791 and 79.6848 and 85.0591, the “Normalized data Figure 5e” value (CBPA11-v1-BclXLv2, A-1155463 31.8 nM) was 84.8971 and 95.7911 and 86.6879 and the “Normalized data Figure 5e” value (CBPA11-v1-BclXLv2, A-1155463 100 nM) was 100 and 90.6768. For the same molecule, the “Normalized data Figure 5e” value (CBPA11-v1-BclXLv2, A-1155463 318 nM) was 91.2979 and 98.815 and 100, the “Normalized data Figure 5e” value (CBPA11-v1-BclXLv2, A-1155463 1000 nM) was 86.9949 and 91.0394 and 83.6084 and the “Normalized data Figure 5e” value (CBPA11-v1-BclXLv2, A-1155463 3180 nM) was 69.3324 and 72.9533 and 70.3736. For the same molecule, the “Normalized data Figure 5e” value (CBPA11-v1-BclXLv2, A-1155463 10000 nM) was 38.0946 and 36.2941 and 35.5843 and the “Raw data … vs CBPA11-v1-LD3v3” value (CBPA11-v1-LD3v3, A-1155463 0.01 nM) was 17.2788 and 15.3201 and 15.4842.
